{"source": "patent US20240189263A1", "about": "“DERIVATIZED C60 MOLECULES AND METHODS AND MATERIALS FOR USING DERIVATIZED C60 MOLECULES TO REDUCE RADIATION INJURY” (Mayo Foundation for Medical Education and Research, priority 2021, published 2024)", "assay_type_in_all_cases": "cell-based", "key": {"HepG2 cells": {"test_system": "HepG2 cells", "assay": "DNA damage, γH2AX foci immunofluorescence, HepG2", "method": "(§1) To test the ability of C60-ser to protect against radiation injury, the level of DNA damage in response to radiation was analyzed by measuring γH2AX. The H2AX protein becomes phosphorylated into γH2AX as a result of DNA double strand breaks. This allows for the visualization and quantification of double strand break foci through immunofluorescence analysis. Cells were plated on 8 chamber slides and incubated overnight before C60-ser treatment. Three sets of slides per cell line (to be irradiated with 0, 0.5, and 1 Gy) were prepared, with the top 4 rows used as a control and the bottom 4 rows incubated with 100 μM C60-ser. Cells were incubated with C60-ser for 2 hours before irradiation with a clinical Proteus One proton machine (Ion Beam Applications, Louvain-la-Neuve, Belgium). A 230 MeV mono-energetic unmodulated broad beam of large field size that encompassed all slides containing the cells was used to deliver the 0.5 and 1 Gy doses. White solid water slabs (IBA Dosimetry, Germany) provided the necessary phantom material to place the cells at the desired 8 cm depth with an LET of approximately 1.7 keV/μm. After irradiation, cells were incubated at 37° C. with 5% CO2 for 30 minutes before washing and fixing the cells with 1% formaldehyde. The cells were permeabilized with 1% NP-40 and incubated with 5% BSA to block unspecific antibody bonding. The cells were then incubated with γH2AX primary antibody followed by a secondary antibody. Mounting media containing DAPI was used before applying cover slips and sealing the samples. Cells were imaged on an Olympus IX71 trinocular inverted fluorescence phase contrast microscope with a 40× objective. The resulting images were analyzed by ImageJ, and the foci were counted."}, "N2A cells [1]": {"test_system": "N2A cells", "assay": "DNA damage, γH2AX foci immunofluorescence, N2A", "method": "as §1"}, "[2]": {"test_system": "HCT116 colorectal cancer cells", "assay": "Clonogenic assay of irradiated HCT116 colorectal cancer cells", "settings": "HCT116, 100 μM 2 hours, 0-6 Gy", "method": "A clonogenic assay of HCT116 colorectal cancer cells was conducted. 2×10^6 cells were treated with 100 μM C60-ser for 2 hours and exposed to 0-6 Gy of radiation."}, "NIH3T3 cells [3]": {"test_system": "NIH3T3 cells", "assay": "MTS cytotoxicity assay, NIH3T3", "method": "Cytotoxicity of C60-ser was determined by an MTS (3-(4,5-dimethylthiazol-2-yl)-5-(3-carboxymethoxyphenyl)-2-(4-sulfophenyl)-2H-tetrazolim) colorimetric assay on four different cell lines, each representing a different cell type. Specifically, HepG2 (liver epithelium), HUVEC (endothelial cells), N2A (neuroblastoma cells representative of normal neurons), and NIH3T3 (fibroblasts) were analyzed. The cells were seed in a 96-well tissue culture polystyrene plate at different seeding concentrations based on the cell's doubling time. HUVEC cells were seeded at 10,000 cells/well (24 hour experiments), 8,000 cells/well (48 hour experiments), and 5,000 cells/well (72 hour experiments), and incubated for 24 hours in a humidified atmosphere with 5% C02 at 37° C. […] After incubation with MTS, the optical density (OD) of the resulting formazan solution was read at 490 nm using a microplate reader (Biotek Cytation 5 cell Imaging Multi-Mode reader, Winooski, VT). The cell viability was obtained by normalizing the absorbance of the sample with that of the control wells containing untreated cells. The cell viability was expressed as a percentage, assigning the viability of non-treated cells as 100%. […]"}, "HUVEC cells": {"test_system": "HUVEC cells", "assay": "DNA damage, γH2AX foci immunofluorescence, HUVEC", "method": "as §1"}, "N2A cells [4]": {"test_system": "N2A cells", "assay": "Classic clonogenics survival assay of irradiated cells, N2A", "method": "A classic clonogenics assay was performed to further test the ability of C60-ser to protect against radiation damage. After irradiation, a fraction of the cells will undergo radiation-induced death, whereas other cells remain metabolically active and are able to undergo a few cycles of mitosis before meeting their endpoint. Since many cells remain metabolically activity, classic toxicity measurements such as an MTT measurement are not able to catch the full effects of radiation damage. In contrast, a classic clonogenics assay, which plates a known number of cells and tracks development of colonies, is able to track the number of cells that maintain their clonogenicity. With increasing radiation doses, the fraction of cells that maintain clonogenicity decrease. Therefore, a successful radioprotectant is able to increase the number of surviving colonies compared to the control at the same radiation doses.\nN2A, NIH3T3, and HepG2 cells were plated in 35 mm dishes and treated with 100 μM C60-ser for 2 hours prior to washing with PBS and irradiation at 0, 2, 4, and 6 Gy with a 230 MeV proton beam. Following radiation, a known number of cells were re-plated in six well plates and allowed to grow in culture for 8-14 days to allow for colony formation. To account for cell death with higher radiation doses, a larger number of cells were plated with increasing doses received. […]"}, "NIH3T3 cells [5]": {"test_system": "NIH3T3 cells", "assay": "DNA damage, γH2AX foci immunofluorescence, NIH3T3", "method": "as §1"}, "[6]": {"settings": "100 μM 2 hours before 0.5 Gy proton radiation"}, "[7]": {"settings": "100 μM 2 hours before 1 Gy proton radiation"}, "[8]": {"settings": "100 μM 2 hours, absence of radiation"}}, "data": [{"compound": "O=C(NC(CO)CO)C1(C(=O)NC(CO)CO)C23c4c5c6c7c8c4-c4c2c2c9c%10c4C4%11c%12c-%10c%10c%13c%14c%12-c%12c(c-7c7c%15c%12C%14%12C(C(=O)NC(CO)CO)(C(=O)NC(CO)CO)C%12%14c%12c%16c%17c%18c(c%12-%15)C7%12C(C(=O)NC(CO)CO)(C(=O)NC(CO)CO)C6%12c6c-5c5c7c(c6-%18)C%176C(C(=O)NC(CO)CO)(C(=O)NC(CO)CO)C6%12c6c-7c(c-2c2c6-c6c%12c-%16c%14c-%13c6C%106C(C(=O)NC(CO)CO)(C(=O)NC(CO)CO)C926)C513)C84C%11(C(=O)NC(CO)CO)C(=O)NC(CO)CO", "note": "(centres unmarked) [C60-ser, C60-serinol]", "values": [{"measurement": "γH2AX foci vs control", "setting": "HepG2 cells; HepG2, 100 μM 2 hours before 0.5 Gy proton radiation", "result": "trend towards reduction in total foci formed, but it was not statistically significant"}, {"measurement": "γH2AX foci vs control", "setting": "HepG2 cells; HepG2, 100 μM 2 hours before 1 Gy proton radiation", "result": "significant decrease in the number of foci"}, {"measurement": "γH2AX foci vs control", "setting": "HepG2 cells; HepG2, 100 μM 2 hours, absence of radiation", "result": "no significant different in foci expression"}, {"measurement": "γH2AX foci vs control", "setting": "N2A cells [1]; [6]", "result": "trend towards reduction in total foci formed, but it was not statistically significant"}, {"measurement": "γH2AX foci vs control", "setting": "N2A cells [1]; [7]", "result": "significant decrease in the number of foci"}, {"measurement": "γH2AX foci vs control", "setting": "N2A cells [1]; [8]", "result": "no significant different in foci expression"}, {"measurement": "surviving fraction of cells vs control", "setting": "[2]", "result": "no difference in the surviving fraction of cells"}, {"measurement": "percent viability at the highest dose", "setting": "NIH3T3 cells [3]; NIH3T3, 1000 μM", "result": "downward trend"}, {"measurement": "percent viability", "setting": "NIH3T3 cells [3]; NIH3T3, 1-1000 μM, 24, 48 or 72 hours", "result": "did not result in a significant decrease in viability"}, {"measurement": "γH2AX foci vs control", "setting": "HUVEC cells; [6]", "result": "trend towards reduction in total foci formed, but it was not statistically significant"}, {"measurement": "γH2AX foci vs control", "setting": "HUVEC cells; [7]", "result": "significant decrease in the number of foci"}, {"measurement": "γH2AX foci vs control", "setting": "HUVEC cells; [8]", "result": "no significant different in foci expression"}, {"measurement": "fraction of surviving cells", "setting": "N2A cells [4]; 100 μM 2 hours before irradiation", "result": "increased the fraction of surviving cells"}, {"measurement": "dose enhancement factor (DEF) at 20% surviving fraction", "setting": "N2A cells [4]; 100 μM 2 hours, 0-6 Gy 230 MeV proton, one set of clonogenics", "result": 0.91}, {"measurement": "γH2AX foci vs control", "setting": "NIH3T3 cells [5]; NIH3T3, 100 μM 2 hours before 0.5 Gy proton radiation", "result": "trend towards reduction in total foci formed, but it was not statistically significant"}, {"measurement": "γH2AX foci vs control", "setting": "NIH3T3 cells [5]; NIH3T3, 100 μM 2 hours before 1 Gy proton radiation", "result": "significant decrease in the number of foci"}, {"measurement": "γH2AX foci vs control", "setting": "NIH3T3 cells [5]; NIH3T3, 100 μM 2 hours, absence of radiation", "result": "no significant different in foci expression"}]}]}
